Reference: patent US8372843B2, “Quinolines useful as modulators of ION channels” (Vertex Pharmaceuticals Incorporated, priority 2005, dated 2013)
Read-outs that look alike come from different tables or passages of the source.

Assays:
NaV1.8 [1] = target: T1, NaV1.8 (Homo sapiens, UniProt Q9Y5Y9); experiment: Activity against NaV1.8 channel (Table 4); format: cell-based
Protocol: Compounds of the invention are useful as antagonists of voltage-gated sodium ion channels. Antagonist properties of test compounds were assessed as follows. Cells expressing the NaV of interest were placed into microtiter plates. After an incubation period, the cells were stained with fluorescent dyes sensitive to the transmembrane potential. The test compounds were added to the microtiter plate. The cells were stimulated with either a chemical or electrical means to evoke a NaV dependent membrane potential change from unblocked channels, which was detected and measured with trans-membrane potential-sensitive dyes. Antagonists were detected as a decreased membrane potential response to the stimulus. The optical membrane potential assay utilized voltage-sensitive FRET sensors described by Gonzalez and Tsien (See, Gonzalez, J. E. and R. Y. Tsien (1995) “Voltage sensing by fluorescence resonance energy transfer in single cells” Biophys J 69(4): 1272-80, and Gonzalez, J. E. and R. Y. Tsien (1997) “Improved indicators of cell membrane potential that use fluorescence resonance energy transfer” Chem Biol 4(4): 269-77) in combination with instrumentation for measuring fluorescence changes such as the Voltage/Ion Probe Reader (VIPR®) (See, Gonzalez, J. E., K. Oades, et al. (1999) “Cell-based assays and instrumentation for screening ion-channel targets” Drug Discov Today 4(9): 431-439). B) VIPR® optical membrane potential assay method with chemical stimulation
24 hours before the assay on VIPR, CHO cells endogenously expressing a NaV1.2 type voltage-gated NaV are seeded in 96-well poly-lysine coated plates at 60,000 cells per well. […] The cells are then incubated for 20-30 minutes. • 7) Once the incubation is complete, the cells are ready to be assayed on VIPR® with a sodium addback protocol. […]
The following is an example of how NaV1.3 inhibition activity is measured using the optical membrane potential method#2. […]

neuropathic pain = details: in vivo; cited from earlier work
NaV1.6 = NaV1.6 (Homo sapiens, UniProt Q9UQD0); details: read-out: TTX IC50; cited from earlier work
Chain of NaV1.6 (Q9UQD0 whole entry, looked up): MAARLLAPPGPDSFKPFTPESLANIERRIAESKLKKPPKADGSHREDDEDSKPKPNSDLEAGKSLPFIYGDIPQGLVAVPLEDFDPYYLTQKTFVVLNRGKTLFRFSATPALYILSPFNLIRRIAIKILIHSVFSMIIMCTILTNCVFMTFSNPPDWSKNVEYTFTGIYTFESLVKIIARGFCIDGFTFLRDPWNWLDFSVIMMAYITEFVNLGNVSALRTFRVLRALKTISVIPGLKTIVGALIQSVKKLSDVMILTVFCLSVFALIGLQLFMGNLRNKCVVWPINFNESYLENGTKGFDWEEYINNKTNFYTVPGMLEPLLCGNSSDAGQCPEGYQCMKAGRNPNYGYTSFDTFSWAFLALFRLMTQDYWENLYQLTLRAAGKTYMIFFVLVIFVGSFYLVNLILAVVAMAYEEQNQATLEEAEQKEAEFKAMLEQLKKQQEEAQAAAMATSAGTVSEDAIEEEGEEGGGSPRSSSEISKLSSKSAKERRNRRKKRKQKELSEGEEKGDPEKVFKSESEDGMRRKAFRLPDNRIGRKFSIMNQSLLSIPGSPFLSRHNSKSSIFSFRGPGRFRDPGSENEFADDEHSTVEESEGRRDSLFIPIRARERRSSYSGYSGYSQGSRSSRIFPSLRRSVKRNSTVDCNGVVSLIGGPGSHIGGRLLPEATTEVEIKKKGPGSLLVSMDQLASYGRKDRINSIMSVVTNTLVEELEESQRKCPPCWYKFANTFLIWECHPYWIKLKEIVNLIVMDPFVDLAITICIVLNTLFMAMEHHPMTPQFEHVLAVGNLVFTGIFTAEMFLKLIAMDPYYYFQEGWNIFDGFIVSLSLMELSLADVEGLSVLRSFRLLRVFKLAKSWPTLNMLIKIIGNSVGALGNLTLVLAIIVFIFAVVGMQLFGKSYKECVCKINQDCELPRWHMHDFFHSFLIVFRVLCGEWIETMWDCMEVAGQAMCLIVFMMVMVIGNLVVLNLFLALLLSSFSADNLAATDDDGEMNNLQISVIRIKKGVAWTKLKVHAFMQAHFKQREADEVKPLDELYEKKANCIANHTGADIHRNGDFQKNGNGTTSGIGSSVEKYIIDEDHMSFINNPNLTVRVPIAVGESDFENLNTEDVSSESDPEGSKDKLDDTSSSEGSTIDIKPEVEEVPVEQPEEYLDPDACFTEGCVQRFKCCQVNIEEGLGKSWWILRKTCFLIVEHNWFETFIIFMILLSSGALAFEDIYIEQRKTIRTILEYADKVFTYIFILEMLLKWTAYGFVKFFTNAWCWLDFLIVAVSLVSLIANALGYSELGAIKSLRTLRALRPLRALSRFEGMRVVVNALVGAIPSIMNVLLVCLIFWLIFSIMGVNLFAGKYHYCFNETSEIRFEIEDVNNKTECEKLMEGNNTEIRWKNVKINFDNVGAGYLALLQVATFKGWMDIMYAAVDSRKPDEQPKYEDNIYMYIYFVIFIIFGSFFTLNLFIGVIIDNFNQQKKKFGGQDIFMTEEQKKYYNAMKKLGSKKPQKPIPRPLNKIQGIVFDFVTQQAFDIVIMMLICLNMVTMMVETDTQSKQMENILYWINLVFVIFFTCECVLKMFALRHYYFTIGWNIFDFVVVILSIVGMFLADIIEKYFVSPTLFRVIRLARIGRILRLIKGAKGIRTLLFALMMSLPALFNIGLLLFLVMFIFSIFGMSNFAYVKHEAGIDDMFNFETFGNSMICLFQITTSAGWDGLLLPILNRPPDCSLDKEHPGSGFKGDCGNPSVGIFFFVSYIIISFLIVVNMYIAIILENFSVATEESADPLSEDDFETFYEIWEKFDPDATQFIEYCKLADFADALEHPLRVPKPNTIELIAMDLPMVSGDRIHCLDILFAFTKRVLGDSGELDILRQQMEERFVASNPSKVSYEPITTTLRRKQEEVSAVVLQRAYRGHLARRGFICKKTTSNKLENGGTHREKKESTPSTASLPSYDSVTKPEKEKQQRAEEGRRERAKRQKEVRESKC

NaV1.9 = NaV1.9 (Homo sapiens, UniProt Q9UI33); details: read-out: TTX IC50; cited from earlier work
NaV1.8 [2] = target: T1, NaV1.8; details: read-out: TTX IC50; cited from earlier work
NaV1.1 = NaV1.1 (Homo sapiens, UniProt P35498); details: read-out: TTX IC50; cited from earlier work
NaV1.2 = NaV1.2 (Homo sapiens, UniProt Q99250); details: read-out: TTX IC50; cited from earlier work
NaV1.3 = NaV1.3 (Homo sapiens, UniProt Q9NY46); details: read-out: TTX IC50; cited from earlier work

T1 sequence (Q9Y5Y9 whole entry, looked up): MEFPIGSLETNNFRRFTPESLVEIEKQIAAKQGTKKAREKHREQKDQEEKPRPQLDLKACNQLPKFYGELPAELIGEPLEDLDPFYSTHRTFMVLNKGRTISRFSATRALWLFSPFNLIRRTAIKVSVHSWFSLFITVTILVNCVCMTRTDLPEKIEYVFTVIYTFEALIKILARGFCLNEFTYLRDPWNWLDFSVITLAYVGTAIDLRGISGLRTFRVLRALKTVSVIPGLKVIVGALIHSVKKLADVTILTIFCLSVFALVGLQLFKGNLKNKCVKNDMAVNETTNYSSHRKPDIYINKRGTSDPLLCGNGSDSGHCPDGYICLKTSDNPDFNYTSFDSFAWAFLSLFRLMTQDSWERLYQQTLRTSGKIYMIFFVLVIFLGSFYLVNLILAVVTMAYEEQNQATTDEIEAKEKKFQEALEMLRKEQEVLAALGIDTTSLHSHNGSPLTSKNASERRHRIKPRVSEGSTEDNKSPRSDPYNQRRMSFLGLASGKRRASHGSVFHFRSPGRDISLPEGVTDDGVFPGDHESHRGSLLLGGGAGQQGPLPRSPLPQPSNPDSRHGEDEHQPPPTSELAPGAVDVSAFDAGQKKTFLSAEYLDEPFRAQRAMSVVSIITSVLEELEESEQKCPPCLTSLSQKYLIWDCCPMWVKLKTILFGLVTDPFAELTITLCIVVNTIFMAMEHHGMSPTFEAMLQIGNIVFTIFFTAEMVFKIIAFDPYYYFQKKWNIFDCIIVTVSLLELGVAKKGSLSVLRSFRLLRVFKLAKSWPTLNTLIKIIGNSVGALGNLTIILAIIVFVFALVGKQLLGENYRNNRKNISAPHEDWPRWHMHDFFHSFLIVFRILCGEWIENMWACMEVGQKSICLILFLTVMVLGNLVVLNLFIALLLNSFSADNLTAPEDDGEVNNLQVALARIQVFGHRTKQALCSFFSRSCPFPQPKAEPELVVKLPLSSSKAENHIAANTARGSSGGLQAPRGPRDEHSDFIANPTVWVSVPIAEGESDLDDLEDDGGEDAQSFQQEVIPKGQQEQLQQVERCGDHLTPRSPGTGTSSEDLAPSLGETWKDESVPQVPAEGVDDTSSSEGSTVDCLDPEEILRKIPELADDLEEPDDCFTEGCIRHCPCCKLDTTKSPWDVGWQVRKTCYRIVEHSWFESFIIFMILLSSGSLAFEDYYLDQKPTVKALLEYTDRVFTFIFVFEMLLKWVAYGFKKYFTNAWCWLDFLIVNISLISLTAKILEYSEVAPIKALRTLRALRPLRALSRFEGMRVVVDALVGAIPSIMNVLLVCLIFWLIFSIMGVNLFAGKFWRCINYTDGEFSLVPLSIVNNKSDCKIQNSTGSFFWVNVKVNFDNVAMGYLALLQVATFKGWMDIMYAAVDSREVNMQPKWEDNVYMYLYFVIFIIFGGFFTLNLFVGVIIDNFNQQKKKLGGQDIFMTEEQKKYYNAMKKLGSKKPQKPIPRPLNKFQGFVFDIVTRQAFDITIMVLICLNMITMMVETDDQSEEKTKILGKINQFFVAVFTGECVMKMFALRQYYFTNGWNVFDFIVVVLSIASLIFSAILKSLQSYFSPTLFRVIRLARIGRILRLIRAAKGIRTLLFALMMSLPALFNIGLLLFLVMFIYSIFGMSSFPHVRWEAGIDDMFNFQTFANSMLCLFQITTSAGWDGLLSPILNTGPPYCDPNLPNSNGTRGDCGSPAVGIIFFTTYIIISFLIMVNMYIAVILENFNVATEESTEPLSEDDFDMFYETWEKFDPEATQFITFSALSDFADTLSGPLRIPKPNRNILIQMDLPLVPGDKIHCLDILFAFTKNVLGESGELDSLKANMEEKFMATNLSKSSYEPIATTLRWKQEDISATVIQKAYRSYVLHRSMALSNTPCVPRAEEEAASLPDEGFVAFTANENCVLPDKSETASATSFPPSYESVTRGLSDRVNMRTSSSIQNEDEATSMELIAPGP

Q: With `CC(C)COC(=O)N1CCN(c2nc(-c3ccccc3C(F)F)cc3ccccc23)CC1` [Compound 4, Isobutyl 4-(3-(2-(difluoromethyl)phenyl)isoquinolin-1-yl)piperazine-1-carboxylate] as the compound, how does the IC50 (NaV1.8 [1]) read?
A: > 15000 nM

Q: For `CC(C)COC(=O)N1CCN(c2nc(-c3ccccc3O)cc3ccccc23)CC1` [Compound 3, Isobutyl 4-(3-(2-hydroxyphenyl)isoquinolin-1-yl)piperazine-1-carboxylate], which IC50 (NaV1.8 [1]) is on record?
A: > 15000 nM

Q: For `NCC1(CC(=O)O)CCCCC1` [Gabapentin], which “share of patients in whom it works” value (neuropathic pain) is on record?
A: 60%

Q: For `NC1=N[C@H](O)[C@H]2[C@H]3O[C@]4(O)O[C@@H]([C@@H](O)[C@@]2(N1)[C@@H]4O)[C@]3(O)CO` [TTX, tetrodotoxin], which IC50 (NaV1.6) is on record?
A: 6 nM

Q: What about the IC50 (NaV1.9) of the same compound?
A: 1000 nM

Q: What about the IC50 (NaV1.8 [2]) of the same compound?
A: > 50000 nM

Q: What about the IC50 (NaV1.1) of the same compound?
A: 10 nM

Q: And the IC50 (NaV1.2)?
A: 10 nM

Q: And the IC50 (NaV1.3)?
A: 15 nM

Q: For `CC(C)COC(=O)NC1CCN(c2nc(-c3ccccc3O)cc3ccccc23)CC1` [Compound 1, Isobutyl 1-(3-(2-hydroxyphenyl)isoquinolin-1-yl)piperidin-4-ylcarbamate], which IC50 (NaV1.8 [1]) is on record?
A: 10000 to 15000 nM
